Measured values from patent US11352315B2, “Compositions and methods comprising a triaryl polyamine” (Curza Global, LLC, priority 2017, dated 2022).
Converted amounts (≈) assume the structure as drawn.

Key:
[1] = tested on: A. baumannii ATCC BAA 1605; experiment: MIC testing against the planktonic phenotype (Example 5); type: cell-based; conditions: Acinetobacter baumannii, BAA1605, 24 hr at 37° C.
Description: (§8) The isolate was maintained on Columbia blood agar and passaged as necessary with overnight incubation at 37° C.
Minimum inhibitory concentration (MIC) testing against the planktonic phenotype was performed first. To do so, a modified protocol of the Clinical and Laboratory Standards Institute (CLSI) guideline M100 was used. In short, using a fresh overnight culture of bacteria, a 0.5 McFarland standard was made in PBS using a nephelometer, then diluted to achieve a concentration of ˜7.5×10^5 CFU/mL. A 96-well plate was set up such that a final volume of 100 μL was present in each well. Column 1 served as the negative control of growth (antibiotic only without bacteria added) and Column 11 served as the positive control of growth (bacteria only, no antibiotic).
Into columns 2-11, 50 μL of CAMHB were added to each well. […] The solution was mixed, then 50 μL were removed and added to wells of column 3. This 1:2 dilution process was continued through column 10. Lastly, into each well of columns 2-11, 50 μL of the prepared bacterial solution were added. […] The 96-well plate was covered with adhesive film and incubated 24 hr at 37° C. The concentration of antibiotic that inhibited pellet formation or turbidity was considered the MIC.

MRSA [2] = experiment: MIC analysis; type: cell-based; conditions: Staphylococcus aureus, 24 hours
Description: (§1) A clinical strain of MRSA, isolated from a patient who underwent arthroscopic knee surgery and characterized by ARUP Laboratories, Salt Lake City, Utah, was used for this study in addition to Pseudomonas aeruginosa ATCC 27853 and Alcanivorax borkumensis ATCC 700651. P. aeruginosa was resuspended in BHI broth, grown overnight at 37° C. and transferred to fresh BHI with 30% glycerol for storage at −80° C. The MRSA isolate was likewise stored in BHI with 30% glycerol at −80° C. […] Before performing MIC analysis and biofilm experiments, the frozen stocks of MRSA and P. aeruginosa were streaked onto Columbia blood agar plates and grown overnight at 37° C. A. borkumensis ATCC 700651 was resuspended from a lyophilized pellet into marine broth, grown overnight at 30° C. and passaged on marine agar plates prior to experimentation.
(§2) To determine the MIC of polyamine compounds, the protocol described herein was used.
(§3) In brief, a 0.5 McFarland of each bacterial isolate was made. A 0.5 McFarland is a measure of turbidity in a liquid sample that contains approximately 1×10^^8 CFU/mL. The 0.5 McFarland standard was diluted in cation adjusted Mueller Hinton Broth (CAMHB), and 50 μL of broth were added to a well of a 96-well plate. In addition, 50 μL of CAMHB that contained a desired concentration of antimicrobial were also added to the well for a final volume of 100 μL and a final concentration of approximately 5×10^4 CFU/well (which equated to approximately 5×10^5 CFU/mL). Each well contained a desired amount of polyamine compound in order to experimentally determine the MIC. Each 96-well plate was incubated at 37° C. for 24 hours. The contents of each well were plated on tryptic soy agar (TSA). TSA plates were incubated for 37° C. for 24 hours after which the number of CFU were counted and used to calculate the CFU/mL that remained after exposure to varying concentrations of compound. This procedure was repeated n=8 times for each concentration of antimicrobial.

P. aeruginosa [3] = experiment: MIC analysis; type: cell-based; conditions: Pseudomonas aeruginosa, 24 hours
Description: as §1, §2, §3

A. baumannii [4] = experiment: Wound healing study, porcine excision wound model (Example 3); type: in vivo, Acinetobacter baumannii; conditions: for CFU/g Tissue: necropsy at 28 days
Description: An IACUC-approved in vivo analysis utilized an excision wound model in swine. Up to 32 partial thickness wounds were created/animal using a 1 cm biopsy punch (FIG. 1A). Wounds were inoculated with ^˜1×10^8 colony forming units (CFU) of A. baumannii in the planktonic or biofilm phenotype. Well-established biofilms were grown on the surface of bio-absorbable collagen in a modified CDC biofilm reactor for 8 days (FIG. 1B). An n=8 wounds were used for each treatment group.
For the treatment groups, infection was allowed to establish in each wound for 5 days after which time treatment with an antimicrobial began. […] In a separate pig, wounds were inoculated as above and a combination of colistin/imipenem (2.5 mg/each) was administered IV for 14 days for comparison to the current clinical standard of care for A. baumannii. […] Swine were monitored for 28 days. Wound size was measured daily. Culture swabs were collected regularly. At the time of necropsy, a 5 mm biopsy punch was used to collect tissue and calculate CFU/g using standard microbiological procedure. ANOVA analysis was used to compare differences in data with alpha 0.05.

[5] = tested on: A. baumannii ATCC BAA 1605 biofilms; experiment: Biofilm efficacy in CAMHB broth, CDC biofilm reactor (Example 5); type: cell-based, Acinetobacter baumannii; conditions: 24 hr
Description: as §8
Biofilms were grown on polycarbonate coupons in a CDC biofilm reactor following the manufacturer's recommendation. Once assembled and autoclaved, the reactor was inoculated. To do so, a fresh overnight culture of A. baumannii was used to make a 0.5 McFarland standard of the bacterial isolate (˜5×10^7 CFU/mL). One mL of the 0.5 McFarland solution was inoculated into 500 mL of BHI in the CDC biofilm reactor. The reactor was placed on a hot plate set at 34° C. and a baffle rotation of 130 rpm for 24 hr. After 24 hr batch growth, a continuous flow of 10% BHI was flowed through the reactor at ˜6.9 mL/min for an additional 168 hr (7 days).
A 100 μL aliquot of broth was removed and plated using a 10-fold dilution series in order to quantify the CFU/coupon that remained. Testing was performed with n=3 repeats per concentration. A baseline of growth was determined by quantifying n=3 coupons/reactor immediately following growth.

A. baumannii [6] = experiment: MBEC analysis, MBEC Inoculation Tray (column headed MBC); type: cell-based; conditions: Acinetobacter baumannii, 24 hours
Excerpt: (§4) To determine the MBEC of each polyamine compound, the MBEC Inoculation Tray by Innovotech, formerly known as the Calgary biofilm device, was used. Within this device, biofilms grow on the surface of polystyrene pegs, 96 of which are attached to a lid. These pegs are inserted into a flat bottom 96-well plate. In this instance, the MBEC of a molecule was defined as the concentration of compound (in μg/mL) required to reduce 10^5 or 10^6 CFU/peg (biofilm levels varied by isolate) to 10^2 CFU/peg in a 24-hour period.
(§5) Following the manufacturer's guidelines, biofilms were grown on the surface of each peg by first making a 0.5 McFarland of each isolate. The 0.5 McFarland was diluted 1:100 in CAMHB. Into each well of a flat bottom 96-well plate, 150 μL of broth were pipetted. The plate was shaken at 100 rpm for 24 hours (P. aeruginosa and A. baumannii) or 48 hours (MRSA). The pegs were then placed into a separate flat bottom 96-well plate for 10 seconds with 200 μL of phosphate buffered saline (PBS) in each well to remove nonadherent cells. The lid was then placed into a 96-well plate that contained varying concentrations of antimicrobial with 200 μL per well. The plate was incubated for 24 hours at 37° C. after which time 100 μL of broth were plated on TSA. TSA plates were incubated 24 hours at 37° C. and the number of CFU counted to calculate the CFU/peg. In this instance, the MBEC was defined as the concentration of antimicrobial required to reduce 10^5 or 10^6 CFU/peg to 10^2 CFU/peg in a 24 hour period.

MRSA [7] = experiment: as above; type: cell-based; conditions: Staphylococcus aureus, 24 hours
Excerpt: as §4, §5

P. aeruginosa [8] = experiment: as above; type: cell-based; conditions: Pseudomonas aeruginosa, 24 hours
Excerpt: as §4, §5

A. baumannii [9] = experiment: In vivo efficacy, porcine excision wound model (Example 6); parameters: species or system Acinetobacter baumannii; conditions: for Last Day that A. baumannii was Detected in At Least One Wound by Culture Swab / Log10 Transformed CFU/g Tissue at Necropsy (Day 28) / Last Day that A. baumannii was Detected in At Least One Wound: pig
Description: Four Yorkeshire pigs with weight in the range of approximately 40-50 kg were quarantined for a minimum of 7 days. Positive reinforcement (Swedish Fish®, marshmallows, Snickers® bars, fruit and/or other treats) was provided once daily to help the pigs become accustom to having their back manipulated—e.g., a back scratch with a soft brush—by a research team member. A custom-fit jacket was also placed on pigs during the acclimation period to allow them to become aware of the covering that would be on their body.
The night before a surgical procedure was to be performed, pigs were fasted. To perform surgery, pigs were anesthetized initially with a combination of tiletamine-zolazepam (Telazol®; 4.4 mg/kg), Ketamine (2.2 mg/kg) and Xylazine (2.2 mg/kg). Pigs were intubated, given isoflurane inhalant at 0.5-5.0%, transported to a surgical suite, placed in sternal recumbency and clipped/razor-shaved of hair in the region where excision wounds would be created. Pigs were rotated to dorsal recumbency and the jugular vein area was sterilely prepped using alternating betadine/isopropyl alcohol. Once prepped, the site was sterilely draped and a VAP was implanted. To do so, a ventral midline incision was made to isolate the jugular vein. A catheter was placed in the vein and secured. A second incision was made on the dorsal side of the neck and a tunnel created along the subcutaneous space from the second incision to the jugular vein. The catheter was passed through the tunnel. A VAP was anchored subdermally in the dorsal neck space with non-absorbable suture (e.g., Proline). The catheter was connected to the VAP and secured in the jugular vein. Both incision sites were closed using absorbable suture (e.g., Vicryl).
With a VAP in place, a pig was rotated to sternal recumbency. The back was sterilely prepped for surgery, then draped. Using a 1 cm biopsy punch, excision wounds were created with a separation of approximately 2 cm between each wound. Wounds were organized into three or four sections with n=8 wounds/section (see FIG. 5). To reduce bleeding during wound creation, wound beds were treated with μL quantities of dilute epinephrine (1 mg/mL) as needed by the surgeon. Sterile saline-soaked gauze sponges were placed on excised wounds to maintain moisture as additional wounds were created. Once created, wounds were inoculated with bacteria (with the exception of negative control wounds) in either the planktonic or biofilm phenotype (see FIG. 5).
For wounds inoculated with planktonic bacteria, 2-3 colonies from a fresh overnight culture of A. baumannii were adjusted to a turbidity of 10% (˜1×10^9 CFU/mL) in sterile PBS using a nephelometer. One hundred L were pipetted into wound beds on the left flank of an animal (see FIG. 5).
Biofilm inoculation was performed by first growing biofilms on absorbable collagen for a total of 192 hrs (8 days) as described and transported to the OR in approved containers. Once the excision wounds were created, biofilm-containing collagen coupons were aseptically placed into wounds (one coupon/wound) on the right flank of an animal (see FIG. 1). […] Following inoculation, tincture of benzoin was applied to the border of each wound section to help maintain bandage adherence. Wounds were bandaged with a non-stick Telfa pad and Tegaderm. A custom jacket was also placed to further protect bandaging. Pigs were recovered and allowed to eat and drink ad libitum.
All wounds were reinoculated with planktonic or biofilm bacteria once daily for 3 days following the surgical procedure (total of 4 inoculations). […] To perform the reinoculations, planktonic bacteria were made fresh each day.

A. baumannii [10] = experiment: EBEC analysis, high number biofilms on PEEK membranes; type: cell-based, Acinetobacter baumannii; conditions: 24 hours
Description: (§6) To determine the efficacy of polyamine compounds against high number biofilms, biofilms were grown on the surface of polyetheretherketone (PEEK) membranes using a membrane biofilm reactor. This reactor was similar to the CDC biofilm reactor, but rather than growing biofilms on coupon surfaces, the reactor was modified to hold PEEK membranes. In short, to grow biofilms within this system, 500 mL of brain heart infusion (BHI) broth were inoculated with 1 mL of a 0.5 McFarland. The reactor was placed on a hot plate set at 34° C. and the bacteria were grown under batch conditions for 24 hours.
(§7) A solution of 10% BHI was then flowed through the reactor at a rate of 6.94 mL/min for an additional 24 hours. PEEK membranes were then removed and placed into 2 mL of CAMHB that contained a desired concentration of polyamine compound or antibiotic. The EBEC was defined as the concentration of antimicrobial required to reduce a biofilm from approximately 10^9 CFU/PEEK membrane to approximately 10^2 CFU/PEEK membrane in a 24-hour period.

MRSA [11] = experiment: as above; type: cell-based, Staphylococcus aureus; conditions: 24 hours
Description: as §6, §7

A. baumannii [12] = experiment: MIC analysis; type: cell-based; conditions: Acinetobacter baumannii, 24 hours
Description: as §2, §3

P. aeruginosa [13] = experiment: EBEC analysis, high number biofilms on PEEK membranes; type: cell-based, Pseudomonas aeruginosa; conditions: 24 hours
Description: as §6, §7

[14] = debrided wounds, biofilm phenotype
[15] = debrided wounds, planktonic phenotype
[16] = undebrided wounds, biofilm phenotype
[17] = undebrided wounds, planktonic phenotype

Question: With `CCC(CC)CNCCCNCCCNCc1ccc(-c2cc(-c3ccc(CNCCCNCCCNCC(CC)CC)cc3)cc(C(C)(C)C)c2)cc1` [CZ-1-179, N^1,N^1′-((5′-(tert-butyl)-[1,1′:3′,1″-terphenyl]-4,4″-diyl)bis(methylene))bis(N^3-(3-((2-ethylbutyl)amino)propyl)propane-1,3-diamine)] as the compound, how does the MIC [1] read?
Answer: Its MIC is 2 µg/mL (≈ 2.7 µM).

Question: And the MIC (MRSA [2])?
Answer: Its MIC is 0.5 µg/mL (≈ 0.675 µM).

Question: And the MIC (P. aeruginosa [3])?
Answer: The MIC was 4 µg/mL (≈ 5.4 µM).

Question: And the “CFU/g Tissue” value (A. baumannii [4]; swine wounds inoculated with biofilm bacteria)?
Answer: Its value is 0.00 CFU/g Tissue.

Question: And the “CFU/g Tissue” value (A. baumannii [4]; swine wounds inoculated with planktonic bacteria)?
Answer: Its value is 0.00 CFU/g Tissue.

Question: And the “speed of eradication of A. baumannii” value (A. baumannii [4]; swine wounds, topical)?
Answer: Its value is “faster than SSD”.

Question: And the CFU/coupon remaining ([5]; 0.00125% (12.5 μg/mL))?
Answer: Its CFU/coupon remaining is ~9.2×10^5 CFU/coupon.

Question: What about the “log10 reduction of biofilm” value ([5]; 0.00125% (12.5 μg/mL)) of the same compound?
Answer: The value was ~2 log10.

Question: What about the CFU/coupon remaining ([5]; […] (25 μg/mL)) of the same compound?
Answer: Its CFU/coupon remaining is ~4.8×10^3 CFU/coupon.

Question: What about the “log10 reduction of biofilm” value ([5]; […] (25 μg/mL)) of the same compound?
Answer: The value was ~4 log10.

Question: What about the eradication of biofilms ([5]; concentrations from 2% (20 mg/mL) down to 0.005% (50 μg/mL), polycarbonate coupons) of the same compound?
Answer: Its eradication of biofilms is “full eradication of biofilms”.

Question: What about the MBC (A. baumannii [6]) of the same compound?
Answer: Its MBC is 4 µg/mL (≈ 5.4 µM).

Question: And the MBC (MRSA [7])?
Answer: The MBC was 1 µg/mL (≈ 1.35 µM).

Question: And the MBC (P. aeruginosa [8])?
Answer: Its MBC is 4 µg/mL (≈ 5.4 µM).

Question: And the “Day after which A. baumannii was no longer detected by culture” value (A. baumannii [9]; Pig 2 (topical agents only))?
Answer: Its value is 6 days.

Question: What about the “A. baumannii by culture on Day 6” value (A. baumannii [9]; Pig 4 (IV+topical products)) of the same compound?
Answer: The value was “none of the wounds”.

Question: And the “Day on which healing was obvious” value (A. baumannii [9]; Pig 4 (IV+topical products))?
Answer: The value was ≤ 8 days.

Question: And the “Day on which signs of infection resolved” value (A. baumannii [9]; Pig 4 (IV+topical products))?
Answer: Its value is ≤ 6 days.

Question: What about the “Day on which wound contraction was notable” value (A. baumannii [9]; Pig 4 (IV+topical products), biofilm wounds) of the same compound?
Answer: Its value is ≤ 7 days.

Question: And the “Day on which wound contraction was notable” value (A. baumannii [9]; Pig 4 (IV+topical products), planktonic wounds)?
Answer: Its value is ≤ 7 days.

Question: What about the reduction of bioburden (A. baumannii [9]; Pig 4, in combination with IV antibiotics) of the same compound?
Answer: The reduction of bioburden was “reduced completely within two weeks”.

Question: What about the “days sooner signs of infection cleared than the host alone” value (A. baumannii [9]; pig wounds) of the same compound?
Answer: Its value is 3 to 4 days.

Question: And the “Last Day that A. baumannii was Detected in At Least One Wound by Culture Swab” value (A. baumannii [9]; [14])?
Answer: The value was 5.

Question: And the “Log10 Transformed CFU/g Tissue at Necropsy (Day 28)” value (shortened to “Log10 Transformed CFU/g Tissue”) (A. baumannii [9]; [14])?
Answer: Its value is 0.

Question: What about the “Last Day that A. baumannii was Detected in At Least One Wound by Culture Swab” value (A. baumannii [9]; [15]) of the same compound?
Answer: The value was 5.

Question: What about the “Log10 Transformed CFU/g Tissue” value (A. baumannii [9]; [15]) of the same compound?
Answer: The value was 0.

Question: What about the “Last Day that A. baumannii was Detected in At Least One Wound” value (A. baumannii [9]; [16]) of the same compound?
Answer: Its value is 5.

Question: And the “Log10 Transformed CFU/g Tissue” value (A. baumannii [9]; [16])?
Answer: Its value is 0.

Question: And the “Last Day that A. baumannii was Detected in At Least One Wound” value (A. baumannii [9]; [17])?
Answer: The value was 5.

Question: What about the “Log10 Transformed CFU/g Tissue” value (A. baumannii [9]; [17]) of the same compound?
Answer: Its value is 0.

Question: What about the EBEC (A. baumannii [10]) of the same compound?
Answer: Its EBEC is 500 µg/mL.

Question: And the EBEC (MRSA [11])?
Answer: Its EBEC is 250 µg/mL.

Question: What about the MIC (A. baumannii [12]) of the same compound?
Answer: Its MIC is 2 µg/mL (≈ 2.7 µM).

Question: Which results are given for `CC(C)CCNCCCNCCCNCc1cccc(-c2cc(-c3cccc(CNCCCNCCCNCCC(C)C)c3)cc(C(C)(C)C)c2)c1` [CZ-1-182, N^1,N^1′-((5′-(tert-butyl)-[1,1′:3′,1″-terphenyl]-3,3″-diyl)bis(methylene))bis(N^3-(3-(isopentylamino)propyl)propane-1,3-diamine)]?
Answer: MIC (MRSA [2]): 0.25 µg/mL (≈ 0.351 µM); MIC (P. aeruginosa [3]): 4 µg/mL (≈ 5.61 µM); EBEC (P. aeruginosa [13]): 150 µg/mL; EBEC (A. baumannii [10]): 300 µg/mL; EBEC (MRSA [11]): 100 µg/mL; MIC (A. baumannii [12]): 32 µg/mL (≈ 44.9 µM)
